Data from patent publication US10004739B2, “Methods for treating cancer by inhibiting FGFR3/TACC3 fusion protein” (Astellas Pharma Inc., priority 2012, dated 2018).

What was measured:
[1] = system: FGFR3-TACC3_v1 (N-FLAG) fusion polypeptide; experiment: In vitro kinase activity of FGFR3-TACC3_v1 (N-FLAG) fusion polypeptide (HTRF KinEASE-TK, peptide substrate); format: biochemical, human; settings: ATP 100 μM
[2] = system: FGFR3-TACC3_v2 (N-FLAG) fusion polypeptide; experiment: In vitro kinase activity of FGFR3-TACC3_v2 (N-FLAG) fusion polypeptide (HTRF KinEASE-TK, peptide substrate); format: biochemical, human; settings: ATP 100 μM
[3] = system: FGFR3-TACC3_v3 (N-FLAG) fusion polypeptide; experiment: In vitro kinase activity of FGFR3-TACC3_v3 (N-FLAG) fusion polypeptide (HTRF KinEASE-TK, peptide substrate); format: biochemical, human; settings: ATP 100 μM
RT-112 cells = experiment: Anchorage-independent proliferation of RT-112 bladder cancer cell line, spheroid plate, CellTiter-Glo; format: cell-based; settings: Homo sapiens, RT-112, 120 h; final concentration 100 nM; Example 16: 2×10^3 cells per well, 5 days; read-out: growth inhibition rate (%), RT-112
Method: Moreover, as a positive control, a well added only with the medium was prepared. […] As a negative control, DMSO as a vehicle of the compound was added thereto at the same concentration (0.1%) at the time of adding the compound. Thereafter, the cells were cultured for 5 days at 37° C. in the presence of 5% CO2, and a reagent for cell count measurement (CellTiter-Glo™ Luminescent Cell Viability Assay; Promega Corporation) was added thereto. The resultant was stirred for 20 minutes, and the cell count was measured using a luminometer.
(§4) Moreover, the respective compounds were added such that the final concentration thereof became 100 nM, 10 nM, and 1 nM.

[4] = system: FGFR3-TACC3_v1 expression/NIH3T3 cells (tumors); experiment: Anti-tumorigenic activity in nude mice bearing subcutaneous tumors; format: in vivo; settings: 30 mg/kg orally once a day for 11 days
Excerpt: (§1) Cg-Foxn1Nu/Crlcrlj (Nu/Nu) nude mice (Charles River Laboratories, Japan) by means of subcutaneous injection performed in the back of the mice. Three days after the inoculation, AZD4547 and BGJ398 which are FGFR3-TACC3 fusion polypeptide inhibitors were started to be administered. For the test, 4 to 5 mice were assigned to each of the vehicle group and the compound group, AZD4547 and BGJ398 were suspended in a vehicle composed of 0.5% methyl cellulose (Shin-Etsu Chemical Co., Ltd.)/99.5% distilled water, and each of the compounds was orally administered at a dosage of 30 mg/kg. The administration was performed once a day for 11 days, and the body weight of mice and a tumor diameter were measured every 2 or 3 days. A tumor volume was calculated using the following formula. [Tumor volume (mm^3)]=[major axis of tumor (mm)]×[minor axis of tumor (mm)]^2×0.5

[5] = system: FGFR3-TACC3_v2 expression/NIH3T3 cells (tumors); experiment: as above; format: in vivo; settings: 30 mg/kg orally once a day for 11 days
Excerpt: as §1

[6] = system: FGFR3-TACC3_v3 expression/NIH3T3 cells (tumors); experiment: as above; format: in vivo; settings: 30 mg/kg orally once a day for 11 days
Excerpt: as §1

[7] = target: T1, FGFR3-TACC3 fusion polypeptide v1 (Homo sapiens, UniProt P22607); experiment: Kinase inhibition in tumor: phosphorylated FGFR3/total FGFR3 by ELISA; format: in vivo, nude mice; settings: 4 hours after the final administration; dosing as Example 13
T1 construct: expressed in transfected cells; host or cells: NIH3T3 cells infected with FGFR3-TACC3_v1/pMXs-puro retrovirus, inoculated into nude mice
Method: (§2) For the test, 5 mice were assigned to each of the vehicle group and the compound group, and 4 hours after the final administration, tumors were extracted by dissection. Thereafter, by using a lysis solution (Cell Lysis Buffer; Cell Signaling Technology, Inc., Phosphatase Inhibitor Cocktail; Thermo Fisher Scientific Inc., Complete; Roche, Ltd.), protein extracts of the tumors were rapidly prepared, and the total FGFR3 level and a phosphorylated FGFR3 level of the tumors were measured using an ELISA kit (R&D Systems). ELISA was performed according to the attached procedure manual, but detection was performed in a different way in which the chemiluminescence detection is conducted using a chemiluminescent reagent (BM chemiluminescence ELISA substrate; Roche, Ltd.) and a luminometer (ARVO; PerkinElmer Inc.).
(§3) A level obtained by correcting the phosphorylated FGFR3 level by using the total FGFR3 level (phosphorylated FGFR3 level/total FGFR3 level) was taken as a phosphorylation level.

FGFR3-TACC3_v2 = target: T2, FGFR3-TACC3_v2 (Homo sapiens, UniProt P22607, F384L); experiment: as above; format: in vivo, nude mice; settings: 4 hours after the final administration; dosing as Example 13
T2 construct: in order to express a full length of ORF of FGFR3-TACC3_v2 as a protein; expressed in transfected cells; host or cells: NIH3T3 cells infected with FGFR3-TACC3_v2/pMXs-puro retrovirus, inoculated into nude mice
Method: as §2, §3

FGFR3-TACC3_v3 = target: T3, FGFR3-TACC3_v3 (Homo sapiens, UniProt P22607); experiment: as above; format: in vivo, nude mice; settings: 4 hours after the final administration; dosing as Example 13
T3 construct: in order to express a full length of ORF of FGFR3-TACC3_v3 as a protein; expressed in transfected cells; host or cells: NIH3T3 cells infected with FGFR3-TACC3_v3/pMXs-puro retrovirus, inoculated into nude mice
Method: as §2, §3

[8] = system: cells expressing FGFR3-TACC3 fusion gene; settings: reported in Science 2012; 337:1231-5; cited from earlier work
[9] = system: FGFR3-TACC3_v1 expression/NIH3T3 cells; experiment: Anchorage-independent cell proliferation, spheroid plate, CellTiter-Glo; settings: Mus musculus, NIH3T3, 96 h, read-out: growth inhibition rate (%), v1
Method: (§5) The FGFR3-TACC3_v1 expression/NIH3T3 cells were seeded in a 96-well spheroid plate (Sumilon Cell-Tight Spheroid 96U; SUMITOMO BAKELITE CO., LTD.) with D-MEM containing 10% fetal bovine serum, such that the cell count in each well became 1×10^3. Moreover, as a positive control, a well added only with the medium was prepared. […] As a negative control, DMSO as a vehicle of the compound was added thereto at the same concentration (0.1%) as set at the time of adding the compound. Thereafter, the cells were cultured for 4 days at 37° C. in the presence of 5% CO2, and a reagent for cell count measurement (CellTiter-Glo™ Luminescent Cell Viability Assay; Promega Corporation) was added thereto. The resultant was stirred for 20 minutes, and the cell count was measured using a luminometer.
as §4

[10] = system: FGFR3-TACC3_v2 expression/NIH3T3 cells; experiment: as above; settings: Mus musculus, NIH3T3, 96 h, read-out: growth inhibition rate (%), v2
Method: as §5, §4

[11] = system: FGFR3-TACC3_v3 expression/NIH3T3 cells; experiment: as above; settings: Mus musculus, NIH3T3, 96 h, read-out: growth inhibition rate (%), v3
Method: as §5, §4

| SMILES | Inhibition against peptide substrate FGFR3-TACC3 v1 ([1]; final concentration 1 nM) [%] | Inhibition against peptide substrate FGFR3-TACC3 v1 ([1]; final concentration 10 nM) [%] | Inhibition against peptide substrate FGFR3-TACC3 v1 ([1]; final concentration 100 nM) [%] | Inhibition against peptide substrate FGFR3-TACC3 v2 ([2]; final concentration 1 nM) [%] | Inhibition against peptide substrate FGFR3-TACC3 v2 ([2]; final concentration 10 nM) [%] | Inhibition against peptide substrate FGFR3-TACC3 v2 ([2]; final concentration 100 nM) [%] | Inhibition against peptide substrate FGFR3-TACC3 v3 ([3]; final concentration 1 nM) [%] | Inhibition against peptide substrate FGFR3-TACC3 v3 ([3]; final concentration 10 nM) [%] | Inhibition against peptide substrate FGFR3-TACC3 v3 ([3]; final concentration 100 nM) [%] | inhibition at 0.1 µM (RT-112 cells) [%] | inhibition of proliferation of tumors (tumor volume) [4] [%] | inhibition of proliferation of tumors (tumor volume) [5] [%] | inhibition of growth of tumors (tumor volume) [6] [%] | reduction of tyrosine auto-phosphorylation in the tumor compared to the vehicle group [7] [%] | reduction of tyrosine auto-phosphorylation in the tumor compared to the vehicle group (FGFR3-TACC3_v2) [%] | reduction of tyrosine auto-phosphorylation in the tumor compared to the vehicle group (FGFR3-TACC3_v3) [%] | proliferation of cells expressing FGFR3-TACC3 fusion gene [8] | inhibition at 0.1 µM [9] [%] | inhibition at 0.1 µM [10] [%] | inhibition at 0.1 µM [11] [%] |
| --- | --- | --- | --- | --- | --- | --- | --- | --- | --- | --- | --- | --- | --- | --- | --- | --- | --- | --- | --- | --- |
| COc1cc(CCc2cc(NC(=O)c3ccc(N4C[C@@H](C)N[C@@H](C)C4)cc3)[nH]n2)cc(OC)c1 [AZD4547, N-{5-[2-(3,5-dimethoxyphenyl)ethyl]-2H-pyrazol-3-yl}-4-[(3R,5S)-3,5-dimethylpiperazin-1-yl]benzamide] | 13 | 46 | 69 | 16 | 50 | 77 | 9 | 52 | 74 | 90 | 51 | 61 | 73 | 58 | 54 | 78 | inhibited the proliferation | 74 | 60 | 51 |
| CCN1CCN(c2ccc(Nc3cc(N(C)C(=O)Nc4c(Cl)c(OC)cc(OC)c4Cl)ncn3)cc2)CC1 [BGJ398] | 26 | 47 | 58 | 8 | 44 | 79 | 13 | 38 | 75 | 90 | 90 | 90 | 88 | 77 | 66 | 85 | inhibited the proliferation | 92 | 90 | 87 |
